Measured values taken from patent US11717508B2, “Compounds, compositions, and methods for inhibiting bacterial growth” (priority 2016, dated 2023).

Tested on: DosRST regulon
Assay type: cell-based
Conditions: 40 μM, 6 days, >2-fold, p<0.05

## C[C@@H]1CC(C)(C)C[C@]2(C1)NC(=O)NC2=O (racemic) [HC102A, 7,7,9-trimethyl-1,3-diazaspiro[4.5]decane-2,4-dione]
  genes downregulated by compound that are also downregulated in the CDC1551(ΔdosR) mutant: 48 genes
